One test concerns the target Prothrombin (Homo sapiens, UniProt P00734). Nature of the test: Inhibition of human thrombin.
For another test, the target named is Procathepsin L (Homo sapiens, UniProt P07711). Nature of the test: Inhibition of human cathepsin L.
Test [1] has as its target Programmed cell death protein 1/Programmed cell death 1 ligand 1 (Homo sapiens, UniProt Q15116+Q9NZQ7). Nature of the test: Inhibition of PD-1/PD-L1 (unknown origin) protein protein interaction. Type of test: protein-complex assay.
Test [2] deals with Spike glycoprotein/Angiotensin-converting enzyme 2 (Severe acute respiratory syndrome coronavirus 2, UniProt P0DTC2+Q9BYF1). Nature of the test: Inhibition of His-tagged SARS-CoV2 USA-WA1/2020 spike-RBD/biotinylated Fc-tagged ACE2 (unknown origin) protein protein interaction incubated for 1 hr by Alphascreen assay. (In general: Alpha assays give light when donor and acceptor beads are brought close together.)
Spike glycoprotein/Angiotensin-converting enzyme 2, sequence (Q9BYF1 18-805 limits assumed, other chains not shown): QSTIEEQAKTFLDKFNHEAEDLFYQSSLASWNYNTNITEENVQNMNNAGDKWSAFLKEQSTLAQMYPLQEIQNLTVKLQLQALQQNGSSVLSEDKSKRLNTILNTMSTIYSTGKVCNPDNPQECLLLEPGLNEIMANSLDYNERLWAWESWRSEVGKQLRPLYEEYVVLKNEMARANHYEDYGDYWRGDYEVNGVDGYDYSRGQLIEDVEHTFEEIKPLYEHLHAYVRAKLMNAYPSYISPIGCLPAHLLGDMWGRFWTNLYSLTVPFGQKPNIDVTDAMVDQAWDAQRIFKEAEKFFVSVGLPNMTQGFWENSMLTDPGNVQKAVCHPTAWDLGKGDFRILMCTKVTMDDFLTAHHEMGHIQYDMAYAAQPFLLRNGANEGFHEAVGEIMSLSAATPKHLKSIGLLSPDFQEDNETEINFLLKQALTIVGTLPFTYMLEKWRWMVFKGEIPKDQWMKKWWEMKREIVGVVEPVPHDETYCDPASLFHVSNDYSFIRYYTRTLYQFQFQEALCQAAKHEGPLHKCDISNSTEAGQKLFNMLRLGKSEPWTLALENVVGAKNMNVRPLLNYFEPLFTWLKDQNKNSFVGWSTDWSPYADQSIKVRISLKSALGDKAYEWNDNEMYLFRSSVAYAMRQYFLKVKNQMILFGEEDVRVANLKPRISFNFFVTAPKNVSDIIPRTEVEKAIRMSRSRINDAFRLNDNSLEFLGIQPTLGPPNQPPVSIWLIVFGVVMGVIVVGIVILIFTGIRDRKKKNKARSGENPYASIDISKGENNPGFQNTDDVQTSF

Test [3] addresses Replicase polyprotein 1ab (Severe acute respiratory syndrome coronavirus 2, UniProt P0DTD1). Nature of the test: Inhibition of SARS-CoV2 MPro using Dabcyl-KTSAVLQSGFRKME-Edans as substrate by fluorescence based analysis.

Programmed cell death protein 1/Programmed cell death 1 ligand 1, sequence (Q15116 whole entry): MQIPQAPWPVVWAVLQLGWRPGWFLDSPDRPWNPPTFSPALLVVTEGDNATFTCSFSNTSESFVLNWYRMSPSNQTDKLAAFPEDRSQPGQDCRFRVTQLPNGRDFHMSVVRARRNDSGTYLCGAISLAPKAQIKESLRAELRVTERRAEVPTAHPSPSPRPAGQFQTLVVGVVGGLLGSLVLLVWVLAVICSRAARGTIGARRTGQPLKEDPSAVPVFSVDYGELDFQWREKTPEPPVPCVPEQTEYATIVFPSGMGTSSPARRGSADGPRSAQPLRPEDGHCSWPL
Programmed cell death protein 1/Programmed cell death 1 ligand 1, sequence (Q9NZQ7 whole entry): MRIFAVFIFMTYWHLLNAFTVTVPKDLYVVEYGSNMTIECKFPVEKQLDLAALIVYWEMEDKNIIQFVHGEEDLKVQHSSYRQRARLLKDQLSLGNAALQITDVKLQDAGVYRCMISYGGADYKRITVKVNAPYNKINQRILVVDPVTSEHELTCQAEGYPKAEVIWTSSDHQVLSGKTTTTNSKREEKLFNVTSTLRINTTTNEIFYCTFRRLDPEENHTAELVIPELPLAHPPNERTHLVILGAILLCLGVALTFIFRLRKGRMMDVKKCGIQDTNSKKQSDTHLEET
Procathepsin L, sequence (P07711 whole entry): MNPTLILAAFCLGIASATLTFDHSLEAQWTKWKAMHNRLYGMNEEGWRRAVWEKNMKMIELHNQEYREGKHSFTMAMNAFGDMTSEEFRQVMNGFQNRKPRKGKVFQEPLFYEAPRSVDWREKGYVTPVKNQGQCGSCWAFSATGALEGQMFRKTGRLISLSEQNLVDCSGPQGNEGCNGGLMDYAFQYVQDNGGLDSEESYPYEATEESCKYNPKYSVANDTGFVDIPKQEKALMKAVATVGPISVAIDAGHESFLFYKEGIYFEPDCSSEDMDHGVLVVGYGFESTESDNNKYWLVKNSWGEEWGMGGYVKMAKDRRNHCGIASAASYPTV

As to `CCCCCCCCCC(C)CCC(C)C(=O)O` (configuration not stated), the IC50 against Prothrombin is greater than 390 µM; on Procathepsin L, 218 µM; in test [1], greater than 390 µM.
As for `CCCCCCCCCC(C)CCC(C)C(=O)OC` (configuration not stated), the IC50 in test [2] and in test [3] was greater than 370 µM each time.
Regarding `CCCCCCCCCC(C)CCC(C)C(=O)OCc1ccccc1` (configuration not stated), the IC50 in test [2] and in test [3] was greater than 289 µM in each case.

Usually IC50 stands for the point on the concentration scale where inhibition reaches its midpoint. Low readings indicate greater potency, high ones weaker potency.

For the origin of these results see ChEMBL document CHEMBL5532685 (J Nat Prod, 2024).
